How the values were obtained:
[1] = biological target: T1, mGluR5 receptors (Rattus norvegicus, UniProt P31424); experiment: Cytosolic calcium studies with astrocytes (astrocyte culture test, FLIPR); type: cell-based; settings: rat primary astrocytes; L-quisqualate 100 nM; read-out: mGluR5_FLIPR_r_rpA— IC50
T1 construct: endogenous in cells; host or cells: primary astrocytes from neocortex of Sprague-Dawley rat pups (2-4 d old)
Protocol: Primary astrocyte cultures are prepared from cortices of newborn rats as described by Booher and Sensenbrenner (1972, Neurobiology 2(3):97-105). Briefly, Sprague-Dawley rat pups (2-4 d old) are decapitated and neocortices are dissected, disintegrated with a nylon filter (pore size 80 μm) and carefully triturated. The cell suspension is plated on poly-D-lysine pre-coated flasks (Costar, Netherlands) and cultivated in Dulbecco's Modified Eagle's Medium (DMEM, Invitrogen, Germany) supplemented with 10% foetal calf serum (FCS, Sigma, Germany), 4 mM glutamine and 50 μg/ml gentamycin (both Biochrom, Germany) at 37° C. in a humidified atmosphere of 5% CO2/95% air for 7 d with exchanging the medium at day 2 and 6.
After 7 days in vitro (DIV), cells are shaken overnight at 250 rpm to remove oligodendrocytes and microglia. The next day, astrocytes are rinsed twice with CMF-PBS (calcium- and magnesium-free phosphate buffered saline, Biochrom, Germany), trypsinized and subplated on poly-D-lysine pre-coated 96-well plates (Greiner, Germany) at a density of 40,000 cells/well. 24 h after establishing the secondary culture the astrocytes are rinsed with PBS^++ (phosphate buffered saline, Biochrom, Germany) and fed with astrocyte-defined medium (ADM) consisting of DMEM containing 1×G5-supplement (Invitrogen, Germany), 0.5 μg/ml heparan sulfate, and 1.5 μg/ml fibronectin (both Sigma, Germany) (Miller et al., (1993) Brain Res. 618(1):175-8). 3 d later the medium is exchanged and the cells incubated for another 2-3 d, so that at the time of experiments astrocytes are 14-15 DIV.
Cytosolic Calcium Studies with Astrocytes:
The increase of cytosolic calcium after stimulation with the mGluR5 agonist L-quisqualate is measured using a fluorometric imaging plate reader (FLIPR) and the Ca-Kit (both Molecular Devices). Prior to addition of agonist or antagonist the medium is aspirated and cells are loaded for 2 h at RT with 150 μl of loading buffer consisting of Ca-sensitive dye reconstituted in sodium chloride (123 mM), potassium chloride (5.4 mM), magnesium chloride (0.8 mM), calcium chloride (1.8 mM), D-glucose (15 mM), and HEPES (20 mM), pH 7.3. Subsequently, plates are transferred to FLIPR to detect calcium increase with the addition of L-quisqualate (100 nM) measured as relative fluorescence units (RFU). If antagonists are tested, these compounds are pre-incubated for 10 minutes at RT before addition of the respective agonist.
(§1) The fluorescence signal increase after addition of agonist reflects the increase of cytosolic calcium. Inconsistencies in the amount of cells per well are normalised by using the spatial uniformity correction of the FLIPR software. The mean of replicated temporal data (n=3-5) is calculated and used for graphical representation. For the evaluation of the pharmacology, the calcium changes in response to different concentrations of agonist or antagonist are determined using a maximum minus minimum (MaxMin) calculation.
(§2) All responses (RFU-values) are determined as percentage of control (=maximum response). EC50 and IC50 are calculated according the logistic equation using GraFit 5.0 (Erithacus Software, GB) or Prism 4.0 (GraphPad Software, USA).

[2] = biological target: T2, transmembrane allosteric modulatory sites of mGluR5 receptors (Rattus norvegicus, UniProt P31424); experiment: [3H]-MPEP binding assay in rat cortical membranes; settings: displacement of radioligand, read-out: mGluR5_M_MPEP_r_CTX IC50
T2 construct: from tissue; host or cells: cortex of male Sprague-Dawley rats, membrane preparation
Protocol: Binding Assays for the Characterization of mGluR5 Antagonists
Preparation of Rat Cortical Membranes:
Male Sprague-Dawley rats (200-250 g) are decapitated and their brains are removed rapidly. The cortex is dissected and homogenized in 20 volumes of ice-cold 0.32 M sucrose using a glass-Teflon homogenizer. The homogenate is centrifuged at 1000×g for 10 minutes. The pellet is discarded and the supernatant centrifuged at 20,000×g for 20 minutes. The resulting pellet is re-suspended in 20 volumes of distilled water and centrifuged for 20 minutes at 8000×g. Then the supernatant and the buffy coat are centrifuged at 48,000×g for 20 minutes in the presence of 50 mM Tris-HCl, pH 8.0. The pellet is then re-suspended and centrifuged two to three more times at 48,000×g for 20 minutes in the presence of 50 mM Tris-HCl, pH 8.0. All centrifugation steps are carried out at 4° C. After resuspension in 5 volumes of 50 mM Tris-HCl, pH 8.0 the membrane suspension is frozen rapidly at −80° C.
On the day of assay the membranes are thawed and washed four times by resuspension in 50 mM Tris-HCl, pH 8.0 and centrifugation at 48,000×g for 20 minutes and finally re-suspended in 50 mM Tris-HCl, pH 7.4. The amount of protein in the final membrane preparation (500-700 μg/ml) is determined according to the method of Lowry (Lowry O. H. et al. 1951. J. Biol. Chem. 193, 256-275).
The incubations are continued at room temperature for 60 minutes (equilibrium is achieved under the conditions used). […] Incubations are terminated using a Millipore filter system. The samples are rinsed twice with 4 ml of ice-cold assay buffer over glass fibre filters (Schleicher & Schuell, Germany) under a constant vacuum. Following separation and rinse, the filters are placed into scintillation liquid (5 ml Ultima Gold, Perkin Elmer, Germany) and radioactivity retained on the filters is determined with a conventional liquid scintillation counter (Can berra Packard, Germany).

[3] = biological target: T3, metabotropic glutamate receptor (mGluR5) (Homo sapiens, UniProt P41594); experiment: Cytosolic calcium studies with stably transfected cells (FLIPR, CHO-K1); type: cell-based; parameters: expressed in transfected cells; host or cells: CHO-K1 cells (IPTG-inducible expression); settings: CHO-K1 cells expressing human mGluR5; agonist L-quisqualic acid at 80% of maximal signal; negative modulation; read-out: mGluR5_FLIPR_h_CHO_NAM— IC50
Protocol: Cytosolic Calcium Studies with Stably Transfected Cells:
Chinese hamster ovary cells (CHO-K1 cells), stably transfected for inducible expression of a human metabotropic glutamate receptor mGluR5, are seeded into black clear bottom 96 well plates at a density of 35.000 cells per well. The standard growth medium used (Dulbecco's modified Eagle Medium, DMEM plus L-proline) contains the appropriate inducer isopropyl-β-D-thiogalactopyranosid (IPTG) to achieve optimal receptor expression. One day after seeding the growth medium is exchanged for reconstituted Ca-Kit (Molecular Devices, USA) and incubated for one hour. Ca-Kit is reconstituted in an assay buffer containing 20 mM HEPES pH 7.4, glutamic-pyruvate transaminase, pyridoxal phosphate and sodium pyruvate in Hank's balanced salt solution (HBBS). Agonistic compounds to the receptor elicit increases in cytosolic calcium which can be measured as increases in fluorescence signals by use of a fluorescence imaging plate reader (Molecular Devices).
as §1, §2

[4] = biological target: T3, metabotropic glutamate receptor (mGluR5); experiment: Activity as mGluR5 modulator (test not specified); settings: for activity as metabotropic glutamate receptor (mGluR5) modulator: prior-art compounds

T3 sequence (P41594 21-1212): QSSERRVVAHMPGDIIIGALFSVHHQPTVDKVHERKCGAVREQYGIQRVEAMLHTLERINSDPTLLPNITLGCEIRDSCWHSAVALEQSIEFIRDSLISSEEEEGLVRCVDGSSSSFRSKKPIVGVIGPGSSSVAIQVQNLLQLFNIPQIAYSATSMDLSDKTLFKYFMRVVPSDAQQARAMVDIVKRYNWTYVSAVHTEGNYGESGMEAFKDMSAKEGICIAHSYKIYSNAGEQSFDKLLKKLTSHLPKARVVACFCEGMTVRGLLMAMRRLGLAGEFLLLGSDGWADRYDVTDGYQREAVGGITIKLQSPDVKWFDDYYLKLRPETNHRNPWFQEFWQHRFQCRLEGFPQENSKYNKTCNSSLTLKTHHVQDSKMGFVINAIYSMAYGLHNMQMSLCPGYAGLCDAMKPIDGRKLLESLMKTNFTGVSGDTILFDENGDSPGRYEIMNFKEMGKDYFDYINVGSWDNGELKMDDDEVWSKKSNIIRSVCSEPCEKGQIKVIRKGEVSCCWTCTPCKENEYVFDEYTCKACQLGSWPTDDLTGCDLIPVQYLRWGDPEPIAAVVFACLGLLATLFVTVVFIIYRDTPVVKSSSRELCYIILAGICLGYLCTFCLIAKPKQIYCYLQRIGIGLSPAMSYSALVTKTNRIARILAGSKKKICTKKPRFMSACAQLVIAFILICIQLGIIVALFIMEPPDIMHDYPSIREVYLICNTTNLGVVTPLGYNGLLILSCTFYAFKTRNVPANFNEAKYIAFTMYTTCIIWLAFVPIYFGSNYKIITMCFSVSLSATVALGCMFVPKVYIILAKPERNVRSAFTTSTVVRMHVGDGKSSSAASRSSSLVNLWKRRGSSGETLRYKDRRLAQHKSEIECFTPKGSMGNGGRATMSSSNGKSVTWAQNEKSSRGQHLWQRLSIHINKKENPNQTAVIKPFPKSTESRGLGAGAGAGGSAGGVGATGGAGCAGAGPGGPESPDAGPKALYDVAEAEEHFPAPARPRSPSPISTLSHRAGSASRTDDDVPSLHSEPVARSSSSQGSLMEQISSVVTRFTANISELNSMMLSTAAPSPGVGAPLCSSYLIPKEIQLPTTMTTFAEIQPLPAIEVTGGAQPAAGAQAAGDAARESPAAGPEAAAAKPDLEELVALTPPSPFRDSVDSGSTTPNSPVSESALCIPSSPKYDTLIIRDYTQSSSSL
T1 sequence (P31424 21-1203): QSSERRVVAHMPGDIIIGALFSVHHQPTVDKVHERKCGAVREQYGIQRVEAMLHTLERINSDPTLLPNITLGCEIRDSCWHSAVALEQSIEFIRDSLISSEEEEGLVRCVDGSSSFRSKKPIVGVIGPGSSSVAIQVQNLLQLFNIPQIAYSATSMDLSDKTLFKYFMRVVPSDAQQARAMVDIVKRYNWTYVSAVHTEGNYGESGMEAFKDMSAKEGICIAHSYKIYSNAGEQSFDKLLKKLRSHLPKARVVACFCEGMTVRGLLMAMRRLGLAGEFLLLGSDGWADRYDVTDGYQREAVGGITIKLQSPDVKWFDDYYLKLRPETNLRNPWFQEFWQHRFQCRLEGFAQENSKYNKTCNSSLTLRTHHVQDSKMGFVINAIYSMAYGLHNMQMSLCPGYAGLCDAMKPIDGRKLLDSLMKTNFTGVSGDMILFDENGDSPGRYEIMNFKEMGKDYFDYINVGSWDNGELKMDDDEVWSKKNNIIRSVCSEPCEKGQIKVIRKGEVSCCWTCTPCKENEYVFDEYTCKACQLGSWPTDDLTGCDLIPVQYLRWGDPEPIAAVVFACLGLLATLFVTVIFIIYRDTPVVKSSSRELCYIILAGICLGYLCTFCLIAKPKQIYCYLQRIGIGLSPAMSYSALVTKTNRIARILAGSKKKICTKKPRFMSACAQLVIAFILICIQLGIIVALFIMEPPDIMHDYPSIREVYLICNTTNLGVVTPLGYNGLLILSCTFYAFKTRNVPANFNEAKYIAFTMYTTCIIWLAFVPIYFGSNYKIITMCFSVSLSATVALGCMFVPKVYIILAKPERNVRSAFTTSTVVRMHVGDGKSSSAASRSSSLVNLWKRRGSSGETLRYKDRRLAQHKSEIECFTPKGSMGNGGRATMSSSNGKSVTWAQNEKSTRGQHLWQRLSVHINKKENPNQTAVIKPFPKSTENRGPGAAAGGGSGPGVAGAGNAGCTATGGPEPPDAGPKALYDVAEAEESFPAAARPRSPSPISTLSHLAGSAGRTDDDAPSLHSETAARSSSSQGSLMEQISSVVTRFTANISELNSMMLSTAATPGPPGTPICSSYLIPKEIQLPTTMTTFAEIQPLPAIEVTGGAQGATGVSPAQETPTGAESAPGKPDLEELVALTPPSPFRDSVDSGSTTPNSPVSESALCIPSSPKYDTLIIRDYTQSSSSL
T2 sequence (P31424 21-1203): as above

Row | Structure (SMILES) | IC50 [1] [nM] | IC50 [2] [nM] | IC50 [3] [nM] | melting point [°C] | activity as metabotropic glutamate receptor (mGluR5) modulator [4] | selectivity ([4]; prior-art compound)
1 | CC1c2ccoc2CCN1C(=O)c1cc2ncc(Cl)cn2n1 (stereo not shown) [Example 29, 6-Chloro-2-[(4-methyl-6,7-dihydrofuro[3,2-c]pyridin-5(4H)-yl)carbonyl]pyrazolo[1,5-a]pyrimidine] | 64 | 110 | 206 |  |  | 
2 | CC1c2ccsc2CCN1C(=O)c1cc2ncc(Cl)cn2n1 (stereo not shown) [Example 2, (6-Chloro-pyrazolo[1,5-a]pyrimidin-2-yl)-(4-methyl-6,7-dihydro-4H-thieno[3,2-c]pyridin-5-yl)-methanone] | 24 | 55 | 44 |  |  | 
3 | Cc1cc2c(s1)CCN(C(=O)c1cc3ncc(Cl)cn3n1)C2C (stereo not shown) [Example 16, (6-Chloro-pyrazolo[1,5-a]pyrimidin-2-yl)-(2,4-dimethyl-6,7-dihydro-4H-thieno[3,2-c]pyridin-5-yl)-methanone] | 21 | 20 | 92.9 |  |  | 
4 | CCC1c2ccsc2CCN1C(=O)c1cc2ncc(Br)cn2n1 (stereo not shown) [Example 9, (6-Bromo-pyrazolo[1,5-a]pyrimidin-2-yl)-(4-ethyl-6,7-dihydro-4H-thieno[3,2-c]pyridin-5-yl)-methanone] | 21 | 117 | 63.6 |  |  | 
5 | O=C(c1cc2ncc(Br)cn2n1)N1CCOCC1 [Example B310, (6-Bromopyrazolo[1,5-a]pyrimidin-2-yl)-morpholin-4-yl-methanone] |  |  |  |  | no particular activity | 
6 | O=C(c1cc2ncc(Br)cn2n1)N1CCCCC1 [Example B308, (6-Bromopyrazolo[1,5-a]pyrimidin-2-yl)-piperidin-1-yl-methanone] |  |  |  |  | no particular activity | 
7 | C[C@@H]1c2ccsc2CCN1C(=O)c1cc2ncc(Br)cn2n1 [Example 42, (6-Bromo-pyrazolo[1,5-a]pyrimidin-2-yl)-(4-methyl-6,7-dihydro-4H-thieno[3,2-c]pyridin-5-yl)-methanone] | 20 | 10 | 23.4 | 142 to 144 |  | 

Further lines, results first:

Row | IC50 [1] [nM] | IC50 [2] [nM] | IC50 [3] [nM] | melting point [°C] | activity as metabotropic glutamate receptor (mGluR5) modulator [4] | selectivity ([4]; prior-art compound) | Structure (SMILES)
8 | 36 | 17 | 147 |  |  |  | Cc1cc2c(o1)CCN(C(=O)c1cc3ncc(Br)cn3n1)C2C (stereo not shown) [Example 44, (6-Bromo-pyrazolo[1,5-a]pyrimidin-2-yl)-(2,4-dimethyl-6,7-dihydro-4H-furo[3,2-c]pyridin-5-yl)-methanone]
9 | 80.5 | 214 | 107 |  |  |  | CC1c2ccoc2CCN1C(=O)c1cc2ncc(Br)cn2n1 (stereo not shown) [Example 28, 6-Bromo-2-[(4-methyl-6,7-dihydrofuro[3,2-c]pyridin-5(4H)-yl)carbonyl]pyrazolo[1,5-a]pyrimidine]
10 |  |  | 4420 | 136 to 137 |  |  | C[C@H]1c2ccsc2CCN1C(=O)c1cc2ncc(Br)cn2n1 [Example 41, (6-Bromo-pyrazolo[1,5-a]pyrimidin-2-yl)-(4-methyl-6,7-dihydro-4H-thieno[3,2-c]pyridin-5-yl)-methanone]
11 | 21 | 150 | 82 |  |  |  | CCC1c2ccsc2CCN1C(=O)c1cc2ncc(Cl)cn2n1 (stereo not shown) [Example 10, (6-Chloro-pyrazolo[1,5-a]pyrimidin-2-yl)-(4-ethyl-6,7-dihydro-4H-thieno[3,2-c]pyridin-5-yl)-methanone]
12 | 22.8 | 12 | 104 |  |  |  | Cc1cc2c(s1)CCN(C(=O)c1cc3ncc(Br)cn3n1)C2C (stereo not shown) [Example 15, (6-Bromo-pyrazolo[1,5-a]pyrimidin-2-yl)-(2,4-dimethyl-6,7-dihydro-4H-thieno[3,2-c]pyridin-5-yl)-methanone]
13 |  |  |  |  | only a limited activity | not selective | O=C(c1cc2ncc(Br)cn2n1)N1CCc2ccccc2C1 [M, (6-Bromo-pyrazolo[1,5-a]pyrimidin-2-yl)-(1,2,3,4-tetrahydro-isoquinolin-2-yl)-methanon]
14 | 23 | 80 | 80.7 |  |  |  | CC1c2ccsc2CCN1C(=O)c1cc2ncc(Br)cn2n1 (stereo not shown) [Example 1, 6-Bromo-2-[(4-methyl-6,7-dihydrothieno[3,2-c]pyridin-5(4H)-yl)carbonyl]pyrazolo[1,5-a]pyrimidine]
